Measurements taken from paper PMC12685177, “Structures of G-protein coupled receptor HCAR3 in complex with selective agonists reveal the basis for ligand recognition and selectivity” (PLOS Biology, 2025).
“And” between values parts separate entries of the source, which are not always exact repeats. Identical values can stand only once. Like-named read-outs stand apart in the source and are kept apart here.

Assays:
[1] = target: T1, HCAR3 R111A (Homo sapiens, UniProt P49019, R111A); assay: cAMP assay, HCAR3 R111A mutant; type: cell-based; conditions: HCAR3 R111A vs WT
T1 construct: Full-length variants of HCAR3 and HCAR2, including specific point mutations, were incorporated into pcDNA3.1 vectors; FLAG; expressed in transfected cells
T1 sequence (P49019 whole entry R111A): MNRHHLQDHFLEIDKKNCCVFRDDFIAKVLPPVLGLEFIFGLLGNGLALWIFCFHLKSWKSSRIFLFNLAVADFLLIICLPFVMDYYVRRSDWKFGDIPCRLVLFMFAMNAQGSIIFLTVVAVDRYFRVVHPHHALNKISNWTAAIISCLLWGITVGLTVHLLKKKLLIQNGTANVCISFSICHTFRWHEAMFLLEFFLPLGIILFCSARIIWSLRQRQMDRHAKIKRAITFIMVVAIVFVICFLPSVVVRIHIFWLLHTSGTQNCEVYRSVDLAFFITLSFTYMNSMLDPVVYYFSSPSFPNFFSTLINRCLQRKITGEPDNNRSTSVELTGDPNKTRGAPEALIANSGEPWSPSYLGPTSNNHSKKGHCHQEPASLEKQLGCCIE
Procedure: Full-length variants of HCAR3 and HCAR2, including specific point mutations, were incorporated into pcDNA3.1 vectors for conducting cAMP assays. The cAMP levels were quantified using the cAMP-Gi kit from Perkin Elmer (model TRF0263), adhering to the manufacturer’s guidelines. […] Cells were transiently transfected with either wild-type or mutant HCAR3 plasmids (at a dosage of 500 ng per well in a 24-well format) using Lipofectamine 3000 (Invitrogen). After 36 hours, the cells, once rinsed with PBS, were treated with a stimulation buffer,including 500 μM IBMX, and incubated for 30 min in a 384-well plate maintained at 37 °C, with a seeding density of 4,000 cells per well. This step was followed by the addition of 12 μM forskolin to each well, with the incubation continuing for an additional 45 min at the same temperature. Subsequently, each well received 5 μL of the cAMP Eu-cryptate solution and the anti-cAMP-d2 solution, and the mixture was incubated for 1 hour at room temperature [45]. Fluorescence readings at 620/665 nm were then gathered using a multimode plate reader (Perkin Elmer EnVision 2105) [46]. The acquired data were analyzed using GraphPad Prism version 9.0, with statistical significance set at p < 0.05. All experimental procedures were replicated three times to ensure accuracy.

[2] = test system: HCAR3; conditions: cited from earlier work; for higher affinity to HCAR3 than to HCAR2: HCAR3 vs HCAR2; for affinity difference to HCAR3 compared to HCAR2: previously reported
[3] = test system: HCAR2 N86L; assay: cAMP assay, homology-mutated HCAR2 at residue 86 (N86L); type: cell-based, human
Procedure: The cAMP levels were quantified using the cAMP-Gi kit from Perkin Elmer (model TRF0263), adhering to the manufacturer’s guidelines. […] After 36 hours, the cells, once rinsed with PBS, were treated with a stimulation buffer,including 500 μM IBMX, and incubated for 30 min in a 384-well plate maintained at 37 °C, with a seeding density of 4,000 cells per well. This step was followed by the addition of 12 μM forskolin to each well, with the incubation continuing for an additional 45 min at the same temperature. Subsequently, each well received 5 μL of the cAMP Eu-cryptate solution and the anti-cAMP-d2 solution, and the mixture was incubated for 1 hour at room temperature [45]. […] The acquired data were analyzed using GraphPad Prism version 9.0, with statistical significance set at p < 0.05. All experimental procedures were replicated three times to ensure accuracy.

[4] = target: T2, wild-type HCAR3 (Homo sapiens, UniProt P49019); assay: Surface plasmon resonance measurement (Biacore X100), wild-type HCAR3; type: binding; conditions: 6O, PLA, IBC293, acifran compared
T2 construct: expression of the entire length of human HCAR3 and HCAR2 proteins; FLAG (N); 3C protease cleavage site (N); His (C); made in house
T2 sequence (P49019 whole entry): as the sequence (P49019 whole entry R111A) above, with A111R counted along it

[5] = test system: wild-type HCAR2; type: binding, human; parameters: SPR sensorgram response, Acifran-HCAR2: unit not given here
[6] = target: T3, wild-type HCAR2 (Homo sapiens, UniProt Q8TDS4); type: binding; parameters: SPR sensorgram response, Acifran-HCAR2: unit not given here
T3 construct: expression of the entire length of human HCAR3 and HCAR2 proteins; FLAG (N); 3C protease cleavage site (N); His (C); made in house
T3 sequence (Q8TDS4 whole entry): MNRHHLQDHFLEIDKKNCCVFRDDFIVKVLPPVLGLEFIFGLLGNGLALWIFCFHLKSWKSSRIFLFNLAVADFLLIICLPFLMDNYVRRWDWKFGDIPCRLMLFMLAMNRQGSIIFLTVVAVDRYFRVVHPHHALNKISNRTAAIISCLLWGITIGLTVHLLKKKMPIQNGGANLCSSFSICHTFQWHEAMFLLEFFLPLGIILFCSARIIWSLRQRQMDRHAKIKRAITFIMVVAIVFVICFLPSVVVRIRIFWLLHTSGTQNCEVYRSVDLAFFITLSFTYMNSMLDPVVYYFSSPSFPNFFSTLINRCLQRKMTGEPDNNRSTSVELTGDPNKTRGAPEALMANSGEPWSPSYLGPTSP

Question: For `CC(C)n1nnc2cc(C(=O)O)ccc21` [IBC293, 1-propan-2-ylbenzotriazole-5-carboxylic acid], which “effect of R111A mutation on agonist action at HCAR3 (cAMP assay)” value [1] is on record?
Answer: The value was “barely interfered HCAR3 activation”.

Question: And the “higher affinity to HCAR3 than to HCAR2” value [2]?
Answer: The value was “at least 100 fold”.

Question: What about the “affinity difference to HCAR3 compared to HCAR2” value (“affinity difference to HCAR3” below) [2] of the same compound?
Answer: The value was 100- to 1,000 fold.

Question: And the “cAMP response (normalized)” value ([3]; IBC293-HCAR2 N86L, log[M] -3, Fig. S14C)?
Answer: Its value is 79.8778 and 75.4919 and 74.9151.

Question: What about the “cAMP response (normalized)” value ([3]; IBC293-HCAR2 N86L, log[M] -4, Fig. S14C) of the same compound?
Answer: The value was 76.5789 and 72.1623 and 89.1848.

Question: What about the “cAMP response (normalized)” value ([3]; IBC293-HCAR2 N86L, log[M] -5, Fig. S14C) of the same compound?
Answer: Its value is 83.4897 and 75.4819 and 86.0148.

Question: What about the “cAMP response (normalized)” value ([3]; IBC293-HCAR2 N86L, log[M] -6, Fig. S14C) of the same compound?
Answer: Its value is 92.474 and 94.1647 and 90.5718.

Question: And the “cAMP response (normalized)” value ([3]; IBC293-HCAR2 N86L, log[M] -7, Fig. S14C)?
Answer: Its value is 100.025 and 101.905 and 97.6855.

Question: And the “cAMP response (normalized)” value ([3]; IBC293-HCAR2 N86L, log[M] -8, Fig. S14C)?
Answer: The value was 96.4886 and 103.749 and 98.8962.

Question: What about the “cAMP response (normalized)” value ([3]; IBC293-HCAR2 N86L, log[M] -9, Fig. S14C) of the same compound?
Answer: Its value is 106.585 and 93.0489 and 96.2716.

Question: And the “cAMP response (normalized)” value ([3]; IBC293-HCAR2 N86L, log[M] -10, Fig. S14C)?
Answer: The value was 101.501 and 101.566 and 98.9795.

Question: For `O=C(O)C(O)Cc1ccccc1` [PLA, D-phenyllactic acid], which “affinity difference to HCAR3” value [2] is on record?
Answer: Its value is 100- to 1,000 fold.

Question: And the “cAMP response (normalized)” value ([3]; PLA-HCAR2 N86L, log[M] -3, Fig. S14D)?
Answer: Its value is 52.7872 and 58.3693 and 59.0285.

Question: What about the “cAMP response (normalized)” value ([3]; PLA-HCAR2 N86L, log[M] -4, Fig. S14D) of the same compound?
Answer: The value was 77.5234 and 72.7009 and 60.409.

Question: What about the “cAMP response (normalized)” value ([3]; PLA-HCAR2 N86L, log[M] -5, Fig. S14D) of the same compound?
Answer: Its value is 76.3988 and 76.6951 and 70.3605.

Question: What about the “cAMP response (normalized)” value ([3]; PLA-HCAR2 N86L, log[M] -6, Fig. S14D) of the same compound?
Answer: Its value is 100.996 and 89.6375 and 92.8244.

Question: And the “cAMP response (normalized)” value ([3]; PLA-HCAR2 N86L, log[M] -7, Fig. S14D)?
Answer: Its value is 92.0146 and 97.7923 and 90.5493.

Question: What about the “cAMP response (normalized)” value ([3]; PLA-HCAR2 N86L, log[M] -8, Fig. S14D) of the same compound?
Answer: Its value is 94.5951 and 98.3127 and 96.313.

Question: And the “cAMP response (normalized)” value ([3]; PLA-HCAR2 N86L, log[M] -9, Fig. S14D)?
Answer: The value was 99.4667 and 89.0551 and 95.4388.

Question: And the “cAMP response (normalized)” value ([3]; PLA-HCAR2 N86L, log[M] -10, Fig. S14D)?
Answer: Its value is 94.992 and 94.7429 and 103.357.

Question: Which “efficacy among the four ligands by surface plasmon resonance” value [4] does the source give for `O=C(O)c1cc(N(Cc2ccsc2)Cc2ccsc2)n[nH]1` [6O, 3-[bis(thiophen-3-ylmethyl)amino]-1H-pyrazole-5-carboxylic acid] here?
Answer: Its value is “highest efficacy among these four ligands”.

Question: And the “higher affinity to HCAR3 than to HCAR2” value [2]?
Answer: The value was “at least 100 fold”.

Question: And the “affinity difference to HCAR3” value [2]?
Answer: The value was 100- to 1,000 fold.

Question: What about the “cAMP response (normalized)” value ([3]; 6O-HCAR2 N86L, log[M] -3, Fig. S14B) of the same compound?
Answer: Its value is 75.8023 and 73.3702 and 70.1872.

Question: What about the “cAMP response (normalized)” value ([3]; 6O-HCAR2 N86L, log[M] -4, Fig. S14B) of the same compound?
Answer: The value was 70.0938 and 69.3817 and 72.4279.

Question: What about the “cAMP response (normalized)” value ([3]; 6O-HCAR2 N86L, log[M] -5, Fig. S14B) of the same compound?
Answer: Its value is 77.2869 and 68.2771 and 76.7503.

Question: What about the “cAMP response (normalized)” value ([3]; 6O-HCAR2 N86L, log[M] -6, Fig. S14B) of the same compound?
Answer: Its value is 87.0105 and 88.7719 and 89.0756.

Question: And the “cAMP response (normalized)” value ([3]; 6O-HCAR2 N86L, log[M] -7, Fig. S14B)?
Answer: Its value is 92.1091 and 85.2704 and 84.4838.

Question: What about the “cAMP response (normalized)” value ([3]; 6O-HCAR2 N86L, log[M] -8, Fig. S14B) of the same compound?
Answer: The value was 95.6219 and 96.9675 and 90.6554.

Question: And the “cAMP response (normalized)” value ([3]; 6O-HCAR2 N86L, log[M] -9, Fig. S14B)?
Answer: Its value is 95.5893 and 94.7012 and 97.44.

Question: And the “cAMP response (normalized)” value ([3]; 6O-HCAR2 N86L, log[M] -10, Fig. S14B)?
Answer: The value was 99.7701 and 103.601 and 102.183.

Question: For `CC1(c2ccccc2)OC(C(=O)O)=CC1=O` (stereo not drawn) [Acifran, acifran], which “affinity difference acifran-HCAR2 vs acifran-HCAR3” value [5] is on record?
Answer: Its value is ~ 100 fold.

Question: What about the “SPR sensorgram response, Acifran-HCAR2” value ([6]; acifran concentration 0.025 (unit not given), c2 value 159.6 (head printed log[M])) of the same compound?
Answer: Its value is -15.5002.

Question: And the “SPR sensorgram response, Acifran-HCAR2” value ([6]; acifran concentration 0.025 (unit not given), c2 value 160.6 (head printed log[M]))?
Answer: Its value is -15.3633.

Question: And the “SPR sensorgram response, Acifran-HCAR2” value ([6]; acifran concentration 0.05 (unit not given), c2 value 159.6 (head printed log[M]))?
Answer: The value was -16.3767.

Question: What about the “SPR sensorgram response, Acifran-HCAR2” value ([6]; acifran concentration 0.1 (unit not given), c2 value 159.6 (head printed log[M])) of the same compound?
Answer: The value was -16.3472.

Question: What about the “SPR sensorgram response, Acifran-HCAR2” value ([6]; acifran concentration 0.4 (unit not given), c2 value 159.6 (head printed log[M])) of the same compound?
Answer: The value was -15.8456.

Question: What about the “cAMP response (normalized)” value ([3]; Acifran-HCAR2 N86L, log[M] -3, Fig. S12E) of the same compound?
Answer: Its value is 51.1208 and 61.7941 and 63.8756.

Question: And the “cAMP response (normalized)” value ([3]; Acifran-HCAR2 N86L, log[M] -4, Fig. S12E)?
Answer: Its value is 60.2042 and 54.7738 and 52.0221.

Question: And the “cAMP response (normalized)” value ([3]; Acifran-HCAR2 N86L, log[M] -5, Fig. S12E)?
Answer: Its value is 64.2273 and 75.5651 and 74.1332.

Question: What about the “cAMP response (normalized)” value ([3]; Acifran-HCAR2 N86L, log[M] -6, Fig. S12E) of the same compound?
Answer: Its value is 84.0136 and 74.6749.

Question: And the “cAMP response (normalized)” value ([3]; Acifran-HCAR2 N86L, log[M] -7, Fig. S12E)?
Answer: The value was 89.2308 and 93.0182.

Question: And the “cAMP response (normalized)” value ([3]; Acifran-HCAR2 N86L, log[M] -8, Fig. S12E)?
Answer: The value was 92.6771 and 91.0418.

Question: And the “cAMP response (normalized)” value ([3]; Acifran-HCAR2 N86L, log[M] -9, Fig. S12E)?
Answer: Its value is 100.347 and 91.8401 and 97.0308.

Question: What about the “cAMP response (normalized)” value ([3]; Acifran-HCAR2 N86L, log[M] -10, Fig. S12E) of the same compound?
Answer: The value was 103.679.
